According to patent US20260007675A1, “TARGETING CHROMATIN REGULATORS INHIBITS LEUKEMOGENIC GENE EXPRESSION IN NPM1 MUTANT LEUKEMIA” (MEMORIAL SLOAN KETTERING CANCER CENTER, priority 2016, published 2026):

Key:
OCI-AML3 cells [1] = assay: Cell viability / proliferation assay in OCI-AML3 cells; assay type: cell-based, human
Protocol: (§1) Proliferation assays were performed as previously described. Viable cell counts were determined by flow cytometry using Sytox Blue (Invitrogen) or DAPI viability stains.

HL-60 cells = assay: Cell viability / proliferation assay in HL-60 cells; assay type: cell-based, human
Protocol: as §1

[2] = test system: HOX, MEIS1 and FLT3 expression in OCI-AML3 cells; assay: Gene expression (quantitative PCR / RNA sequencing) in OCI-AML3 cells; assay type: cell-based, human
[3] = test system: Npm1CA/+RosaSB/+ and Npm1CA/+Flt3ITD/+ leukemia cells; assay: Colony forming and liquid culture proliferation assays in murine NPM1mut leukemia cells; assay type: cell-based; details: EPZ4777 10 μM
Protocol: For drug testing experiments, leukemic blasts were harvested from moribund primarily transplanted mice and cultured in vitro.
as §1
RNA and DNA purification, cDNA synthesis, quantitative real-time (qRT-) PCR, western blotting, flow cytometry, colony forming assays, viral transduction and shRNA based knock down experiments were performed using standard procedures. Primer sequences, western antibodies, and plasmids are also listed in the supplement.

[4] = test system: Hoxa9-Meis1 transformed cells; assay: Colony forming assay in Hoxa9-Meis1 transformed cells; assay type: cell-based, murine; details: Hoxa9-Meis1 in vitro transformed cells, EPZ4777 10 μM
[5] = test system: menin, H3K4me3 and H3K79me2 at HOX and MEIS1 loci in OCI-AML3 cells; assay: Chromatin immunoprecipitation-qPCR and immunoblotting of chromatin marks in OCI-AML3 cells; assay type: cell-based, human; details: OCI-AML3, EPZ4777 10 μM
[6] = test system: Npm1CA/+RosaSB/+ leukemia cells; assay: Transplantation of ex vivo pretreated Npm1CA/+RosaSB/+ leukemia cells (leukemia initiating potential); assay type: in vivo, mice; details: for survival compared to vehicle control: pretreated Npm1CA/+RosaSB/+ cells, single compound
Protocol: As HOX gene expression is associated with self-renewal properties, the inventors next determined whether pharmacological DOT1L inhibition inhibits NPM1^mut leukemia initiation in mice. Murine Npm1^CA/+Rosa^SB/+ leukemia cells were treated ex vivo with EPZ4777 or drug vehicle for 10 days and equal numbers of viable cells were transplanted into sublethally irradiated recipient animals.
Npm1^CA/+Flt3^ITD/+ and Npm1^CA/+Rosa^SB/+ cells were harvested from moribund leukemic animals and transplanted into primary and secondary recipient mice as previously described. […] All transplantation experiments with ex vivo treated cells were performed as secondary transplantations.

DOT1L = DOT1L (Homo sapiens (Human), UniProt Q8TEK3); details: cited from earlier work
Sequence of DOT1L (Q8TEK3 whole entry): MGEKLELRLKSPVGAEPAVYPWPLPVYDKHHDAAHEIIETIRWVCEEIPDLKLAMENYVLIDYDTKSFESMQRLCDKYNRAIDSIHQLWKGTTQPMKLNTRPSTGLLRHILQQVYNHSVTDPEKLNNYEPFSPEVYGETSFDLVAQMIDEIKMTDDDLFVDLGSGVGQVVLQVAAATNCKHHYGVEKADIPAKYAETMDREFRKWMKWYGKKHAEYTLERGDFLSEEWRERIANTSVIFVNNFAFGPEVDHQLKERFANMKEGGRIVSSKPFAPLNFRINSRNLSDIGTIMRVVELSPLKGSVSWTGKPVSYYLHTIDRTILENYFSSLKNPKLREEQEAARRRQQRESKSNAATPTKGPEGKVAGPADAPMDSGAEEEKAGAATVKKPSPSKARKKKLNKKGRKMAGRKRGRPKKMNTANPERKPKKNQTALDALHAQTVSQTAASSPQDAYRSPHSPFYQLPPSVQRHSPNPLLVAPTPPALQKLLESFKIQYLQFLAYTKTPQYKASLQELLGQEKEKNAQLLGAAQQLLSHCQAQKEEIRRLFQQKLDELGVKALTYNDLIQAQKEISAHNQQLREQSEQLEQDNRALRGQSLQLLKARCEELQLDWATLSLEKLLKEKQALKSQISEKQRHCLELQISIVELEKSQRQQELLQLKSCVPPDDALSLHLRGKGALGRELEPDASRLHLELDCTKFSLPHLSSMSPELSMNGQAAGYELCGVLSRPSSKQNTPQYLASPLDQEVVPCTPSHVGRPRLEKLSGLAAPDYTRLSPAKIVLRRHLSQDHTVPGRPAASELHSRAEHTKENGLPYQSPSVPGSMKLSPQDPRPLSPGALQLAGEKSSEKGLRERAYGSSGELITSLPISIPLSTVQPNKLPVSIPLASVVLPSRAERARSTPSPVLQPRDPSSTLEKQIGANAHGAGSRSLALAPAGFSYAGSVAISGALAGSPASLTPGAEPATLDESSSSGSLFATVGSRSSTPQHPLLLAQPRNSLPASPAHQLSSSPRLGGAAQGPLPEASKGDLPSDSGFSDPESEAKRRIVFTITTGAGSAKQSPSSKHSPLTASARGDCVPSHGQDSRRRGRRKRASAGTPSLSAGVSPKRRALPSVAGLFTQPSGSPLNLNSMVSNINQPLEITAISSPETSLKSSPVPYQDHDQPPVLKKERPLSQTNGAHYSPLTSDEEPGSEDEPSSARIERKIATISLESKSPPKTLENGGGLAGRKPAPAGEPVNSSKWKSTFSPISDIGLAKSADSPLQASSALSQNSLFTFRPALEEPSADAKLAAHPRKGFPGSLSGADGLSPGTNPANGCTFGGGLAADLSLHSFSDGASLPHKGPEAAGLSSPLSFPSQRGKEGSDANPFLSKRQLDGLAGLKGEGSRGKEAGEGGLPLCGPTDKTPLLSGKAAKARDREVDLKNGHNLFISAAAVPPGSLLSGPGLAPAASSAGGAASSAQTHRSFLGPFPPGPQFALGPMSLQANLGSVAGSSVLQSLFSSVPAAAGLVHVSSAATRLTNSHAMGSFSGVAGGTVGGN

OCI-AML3 cells [7] = assay: Cell differentiation by CD11b flow cytometry in OCI-AML3 cells; assay type: cell-based, human; details: OCI-AML3, MI-2-2 12 μM, day seven of treatment
OCI-AML3 cells [8] = assay: OCI-AML3 xenotransplantation model in NSG mice; assay type: in vivo; details: MI-503 50 mg/kg bid IP, versus vehicle
[9] = OCI-AML3, 4 days of MI-2-2 treatment (12 μM)

SMILES | cell proliferation (OCI-AML3 cells [1]; human NPM1mut leukemia cells (OCI-AML3), EPZ4777 10 μM) | cell proliferation (HL-60 cells; HL-60, EPZ4777 10 μM) | FLT3 expression ([2]; EPZ4777 10 μM, 7 days, all NPM1mut models) | HOX gene expression ([2]; EPZ4777 10 μM, 7 days, human and murine models) | cell proliferation and colony forming potential [3] | colony forming potential [4] | H3K79me2 marks (immunoblotting and ChIP-PCR) [5] | WBC counts at time of disease onset within the control group ([6]; cells treated ex vivo with EPZ4777 for 10 days) | survival of recipient animals ([6]; cells treated ex vivo with EPZ4777 for 10 days, versus vehicle) | survival compared to vehicle control [6] | specificity for DOT1L as compared to other methyl transferases (DOT1L) | cell proliferation (OCI-AML3 cells [1]; OCI-AML3, dose response, 11 days of MI-2-2 treatment) | cell growth inhibition (HL-60 cells; HL-60 (no NPM1mut or MLL-rearrangement), MI-2-2 dose response) | FLT3 transcript levels [2, 9] | HOXA, HOXB cluster and MEIS1 gene expression [2, 9] | CD11b expression (OCI-AML3 cells [7]) [%] | potency compared with MI-2-2 (dose response curves) (OCI-AML3 cells [1]; human and murine NPM1mut leukemia cells) | leukemia burden (percentage of bone marrow cells expressing human CD45) (OCI-AML3 cells [8]; 7 and 12 days) | HOXB4, MEIS1 and FLT3 expression in sorted human CD45 positive cells (OCI-AML3 cells [8])
CC(C)N(CCCNC(=O)Nc1ccc(C(C)(C)C)cc1)C[C@H]1O[C@@H](n2ccc3c(N)ncnc32)[C@H](O)[C@@H]1O [EPZ4777] | profound reduction | unaffected | dramatic suppression | significant repression | profound reduction | unaffected | global and HOXA and HOXB loci specific reduction | significantly lower WBC counts | significant survival advantage | significantly prolonged survival | highly specific for DOT1L | – | – | – | – | – | – | – | –
CC1(C)CN=C(N2CCN(c3ncnc4sc(CC(F)(F)F)cc34)CC2)S1 [MI-2-2] | – | – | – | – | – | – | – | – | – | – | – | profound dose-dependent reduction in cell proliferation | only a mild cell growth inhibitory effect at higher doses | substantially and highly significantly suppressed | significant down regulation | 72 | – | – | –
Cc1c(CN2CCC(Nc3ncnc4sc(CC(F)(F)F)cc34)CC2)ccc2c1cc(C#N)n2Cc1cn[nH]c1 [MI-503] | – | – | – | – | – | – | – | – | – | significantly prolonged survival | – | – | – | – | – | – | higher potency | significantly reduced | dramatic decrease of expression levels
